Where a SMILES comes first, the peptide text is derived from it. [ ]: non-standard residue; d: D form. The star is where a group is joined. Myristoyl = CCCCCCCCCCCCCC(=O)*; Octanoyl = CCCCCCCC(=O)*; Orn = NCCC[C@H](N)C(=O)O; Hexanoyl = CCCCCC(=O)*
Tests used:
Type in all cases: cell-based
[1] = system: P. aeruginosa strain ATCC 27853; settings: ATCC 27853
Excerpt: (§1) Table I, which follows, indicates the Minimal Inhibitory Concentration (MIC) in […] of various peptides against S.aureus strain ATCC 25923(S), P. aeruginosa strain ATCC 27853(P), E. coli ATCC strain 25922(E), and C. 4albicans (CA). […] The peptides are unsubstituted at the N-terminal; substituted with an acetyl group at the N-terminal, as indicated by Ac-; substituted with an octanoyl group at the N-terminal, as indicated by Oct-; substituted with spinogosine, as indicated by Sph-; substituted with a succinyl group, as indicated by Suc-; substituted with a hexanoyl group, as indicated by Hex-; substituted with a heptanoyl group, as indicated by Hep-; substituted with a valeryl group, as indicated by Val-; substituted with a myristryl group, as indicated by Myr-; or substituted with an ibuprofyl group, as indicated by Ibu-;
(§2) The procedure for the anti-bacterial assay is based upon the guidelines of the National Committee for Clinical Laboratory Standards, Document M7-T2, Volume 8, No. 8, 1988, which document is entirely incorporated herein by reference.
(§3) Stock solutions of peptides, with and without the appropriate substitutions, were prepared at a concentration of 512 μg/ml in sterile deionized distilled water and stored at −70° C.
(§4) The stock peptide solution was diluted in serial dilutions (1:2) down the wells of a microtiter plate so that the final concentrations of peptides in the wells were 0.25, 0.50, 1, 2, 4, 8, 16, 32, 64, 128 and 256 μg/ml. 1-5×10^5 CFUs/ml of either S. aureus ATCC 25923, E. coli ATCC 25922, P. aeruginosa ATCC 27853, or C. albicans, were added to the wells in full strength Mueller Hinton broth (BBL 11443) from a mid-log culture. The inoculum was standardized spectrophotometrically at 600 nm and was verified by colony counts. The plates were incubated for 16-20 hours at 37° C., and the minimal inhibitory concentration (MIC) for each peptide was determined. Minimal inhibitory concentration is defined as the lowest concentration of peptide which produces a clear well in the microtiter plate. The minimal inhibitory concentration of each of the peptides with and/or without the appropriate substitutions is given in Table I below.
(§5) The in vitro anti-microbial activities of the methane sulfonate derivatives were determined according to the methods described in Examples 1 and 2. The activities against ATCC strains of S. aureus, E. coli, P. aeruginosa, and C. albicans, and the hemolysis of red blood cells were compared to the parent compound (Table IV). The activities for Compound 843 (Oct-SEQ ID NO:143) methane sulfonate against clinical strains of P. aeruginosa isolated from cystic fibrosis patients were compared to the parent compound (Table V). The activity for Compound 469 (Oct-SEQ ID NO:27) methane sulfonate against P. gingivalis was compared to the parent compound (Table VI).

[2] = system: E. coli ATCC strain 25922; assay: Minimal Inhibitory Concentration, microtiter broth dilution; settings: ATCC strain 25922
Excerpt: as §1, §2, §3, §4, §5

C. albicans = system: C. albicans
Excerpt: as §1, §2, §3, §4

Structure (SMILES): CCCCCCCC(=O)N[C@H](CC(C)C)C(=O)N[C@H](CCCCN)C(=O)N[C@H](CCCCN)C(=O)N[C@H](CC(C)C)C(=O)N[C@H](CC(C)C)C(=O)N[C@H](CCCCN)C(=O)N[C@H](CCCCN)C(=O)N[C@H](CC(C)C)C(=O)N[C@H](CCCCN)C(=O)N[C@H](CCCCN)C(=O)N[C@H](CC(C)C)C(N)=O [Oct-D-(SEQ ID NO: 110)-NH2] (Octanoyl-[dL][dK][dK][dL][dL][dK][dK][dL][dK][dK][dL]-NH2)
- Minimal Inhibitory Concentration P [1]: 4 µg/mL
- Minimal Inhibitory Concentration E [2]: 16 µg/mL
- Minimal Inhibitory Concentration CA (C. albicans): 32 µg/mL

Structure (SMILES): CCCCCCCC(=O)N[C@@H](CC(C)C)C(=O)N[C@@H](CCCN)C(=O)N[C@@H](CCCN)C(=O)N[C@@H](CC(C)C)C(=O)N[C@@H](CC(C)C)C(=O)N[C@@H](CCCN)C(=O)N[C@@H](CCCN)C(=O)N[C@@H](CC(C)C)C(=O)N[C@@H](CCCN)C(=O)N[C@@H](CCCN)C(=O)N[C@@H](CC(C)C)C(N)=O [Oct-(SEQ ID NO: 142)-NH2] (Octanoyl-L[Orn][Orn]LL[Orn][Orn]L[Orn][Orn]L-NH2)
- Minimal Inhibitory Concentration P [1]: 2 µg/mL
- Minimal Inhibitory Concentration E [2]: 8 µg/mL
- Minimal Inhibitory Concentration CA (C. albicans): 32 µg/mL

Structure (SMILES): CCCCCCCC(=O)N[C@@H](CC(C)C)C(=O)N[C@@H](CCCCN)C(=O)N[C@@H](CCCCN)C(=O)N[C@@H](CC(C)C)C(=O)N[C@@H](CC(C)C)C(=O)N[C@@H](CCCCN)C(=O)N[C@@H](CCC(=O)O)C(=O)N[C@@H](CC(C)C)C(=O)N[C@@H](CCCCN)C(=O)N[C@@H](CCCCN)C(=O)N[C@@H](CC(C)C)C(N)=O [Oct-(SEQ ID NO: 131)-NH2] (Octanoyl-LKKLLKELKKL-NH2)
- Minimal Inhibitory Concentration P [1]: 8 µg/mL
- Minimal Inhibitory Concentration E [2]: 4 µg/mL
- Minimal Inhibitory Concentration CA (C. albicans): 64 µg/mL

Structure (SMILES): CCCCCCCC(=O)N[C@@H](CC(C)C)C(=O)N[C@@H](CCCCN)C(=O)N[C@@H](CCCCN)C(=O)N[C@@H](CC(C)C)C(=O)N[C@@H](CC(C)C)C(=O)N[C@@H](CCCCN)C(=O)N[C@@H](CC(C)C)C(=O)N[C@@H](CC(C)C)C(=O)N[C@@H](CCCCN)C(N)=O [Oct-(SEQ ID NO: 138)-NH2] (Octanoyl-LKKLLKLLK-NH2)
- Minimal Inhibitory Concentration P [1]: 8 µg/mL
- Minimal Inhibitory Concentration E [2]: 8 µg/mL
- Minimal Inhibitory Concentration CA (C. albicans): 64 µg/mL

Structure (SMILES): CCCCCCCC(=O)N[C@@H](CC(C)C)C(=O)N[C@@H](CC(C)C)C(=O)N[C@@H](CCCCN)C(=O)N[C@@H](CCCCN)C(=O)N[C@@H](CC(C)C)C(=O)N[C@@H](CCCCN)C(=O)N[C@@H](CCCCN)C(=O)N[C@@H](CC(C)C)C(N)=O [Oct-(SEQ ID NO: 107)-NH2] (Octanoyl-LLKKLKKL-NH2)
- Minimal Inhibitory Concentration P [1]: 256 µg/mL
- Minimal Inhibitory Concentration E [2]: >256 µg/mL
- Minimal Inhibitory Concentration CA (C. albicans): 128 µg/mL

Structure (SMILES): CCCCCCCCCCCCCC(=O)N[C@@H](CC(C)C)C(=O)N[C@@H](CCCCN)C(=O)N[C@@H](CCCCN)C(=O)N[C@@H](CC(C)C)C(=O)N[C@@H](CC(C)C)C(=O)N[C@@H](CCCCN)C(=O)N[C@@H](CCC(=O)O)C(=O)N[C@@H](CC(C)C)C(=O)N[C@@H](CC(C)C)C(=O)N[C@@H](CCCCN)C(=O)N[C@@H](CC(C)C)C(N)=O [Myr-(SEQ ID NO: 151)-NH2] (Myristoyl-LKKLLKELLKL-NH2)
- Minimal Inhibitory Concentration P [1]: 128 µg/mL
- Minimal Inhibitory Concentration E [2]: 64 µg/mL
- Minimal Inhibitory Concentration CA (C. albicans): >256 µg/mL

Structure (SMILES): CCCCCCCC(=O)N[C@@H](CCCCN)C(=O)N[C@@H](CC(C)C)C(=O)N[C@@H](CCCCN)C(=O)N[C@@H](CCCCN)C(=O)N[C@@H](CCCCN)C(=O)N[C@@H](Cc1ccccc1)C(=O)N[C@@H](CC(C)C)C(=O)N[C@@H](CCCCN)C(=O)N[C@@H](CCCCN)C(=O)N[C@@H](CC(C)C)C(N)=O [Oct-(SEQ ID NO: 129)-NH2] (Octanoyl-KLKKKFLKKL-NH2)
- Minimal Inhibitory Concentration P [1]: 16 µg/mL
- Minimal Inhibitory Concentration E [2]: 32 µg/mL
- Minimal Inhibitory Concentration CA (C. albicans): 128 µg/mL

Structure (SMILES): CCCCCCCC(=O)N[C@@H](CC(C)C)C(=O)N[C@@H](CCCCN)C(=O)N[C@@H](CCCCN)C(=O)N[C@@H](CC(C)C)C(=O)N[C@@H](CC(C)C)C(=O)N[C@@H](CCC(=O)O)C(=O)N[C@@H](CCCCN)C(=O)N[C@@H](CC(C)C)C(=O)N[C@@H](CCCCN)C(=O)N[C@@H](CCCCN)C(=O)N[C@@H](CC(C)C)C(N)=O [Oct-(SEQ ID NO: 130)-NH2] (Octanoyl-LKKLLEKLKKL-NH2)
- Minimal Inhibitory Concentration P [1]: 4 µg/mL
- Minimal Inhibitory Concentration E [2]: 4 µg/mL
- Minimal Inhibitory Concentration CA (C. albicans): 8 µg/mL

Structure (SMILES): CCCCCCCC(=O)N[C@@H](CCCN)C(=O)N[C@@H](CCCN)C(=O)N[C@@H](CC(C)C)C(=O)N[C@@H](CC(C)C)C(=O)N[C@@H](CCCN)C(=O)N[C@@H](CCC(N)=O)C(=O)N[C@@H](CC(C)C)C(=O)N[C@@H](CCCN)C(=O)N[C@@H](CCCN)C(=O)N[C@@H](CC(C)C)C(N)=O [Oct-(SEQ ID NO: 144)-NH2] (Octanoyl-[Orn][Orn]LL[Orn]QL[Orn][Orn]L-NH2)
- Minimal Inhibitory Concentration P [1]: 4 µg/mL
- Minimal Inhibitory Concentration E [2]: 16 µg/mL
- Minimal Inhibitory Concentration CA (C. albicans): 32 µg/mL

Structure (SMILES): CCCCCCCC(=O)N[C@@H](CCCCN)C(=O)N[C@@H](CCCCN)C(=O)N[C@@H](CC(C)C)C(=O)N[C@@H](CC(C)C)C(=O)N[C@@H](CCCCN)C(=O)N[C@@H](CCCCN)C(=O)N[C@@H](CC(C)C)C(=O)N[C@@H](CCCCN)C(=O)N[C@@H](CCCCN)C(=O)N[C@@H](CC(C)C)C(=O)N[C@@H](CC(C)C)C(=O)N[C@@H](CCCCN)C(=O)N[C@@H](CCCCN)C(=O)N[C@@H](CC(C)C)C(N)=O [Oct-(SEQ ID NO: 147)-NH2] (Octanoyl-KKLLKKLKKLLKKL-NH2)
- Minimal Inhibitory Concentration P [1]: 32 µg/mL
- Minimal Inhibitory Concentration E [2]: 32 µg/mL
- Minimal Inhibitory Concentration CA (C. albicans): 128 µg/mL

Structure (SMILES): CCCCCCCC(=O)N[C@@H](CCCCN)C(=O)N[C@@H](CCCCN)C(=O)N[C@@H](Cc1ccccc1)C(=O)NCC(=O)N[C@@H](CCCCN)C(=O)N[C@@H](CCCCN)C(=O)N[C@@H](Cc1ccccc1)C(=O)N[C@H](C(=O)N[C@@H](CCCCN)C(=O)N[C@H](C(=O)N[C@@H](CC(C)C)C(=O)N[C@@H](CCCCN)C(=O)N[C@@H](CCCCN)C(N)=O)[C@@H](C)CC)C(C)C [Oct-(SEQ ID NO: 135)-NH2] (Octanoyl-KKFGKKFVKILKK-NH2)
- Minimal Inhibitory Concentration P [1]: 8 µg/mL
- Minimal Inhibitory Concentration E [2]: 64 µg/mL
- Minimal Inhibitory Concentration CA (C. albicans): 64 µg/mL

Structure (SMILES): CCCCCC(=O)N[C@H](C(=O)N[C@@H](C)C(=O)NCC(=O)N[C@@H](C)C(=O)N[C@H](C(=O)N[C@@H](C)C(=O)N[C@@H](CCCCN)C(=O)N[C@H](C(=O)N[C@@H](C)C(=O)NCC(=O)N[C@@H](CCCCN)C(=O)N[C@H](C(=O)N[C@@H](C)C(=O)N[C@@H](CCCCN)C(=O)N[C@H](C(=O)N[C@@H](C)C(=O)NCC(=O)N[C@@H](C)C(=O)N[C@H](C(=O)N[C@@H](C)C(N)=O)[C@@H](C)CC)[C@@H](C)CC)[C@@H](C)CC)[C@@H](C)CC)[C@@H](C)CC)[C@@H](C)CC [Hex-(SEQ ID NO: 150)-NH2] (Hexanoyl-IAGAIAKIAGKIAKIAGAIA-NH2)
- Minimal Inhibitory Concentration P [1]: 128 µg/mL
- Minimal Inhibitory Concentration E [2]: 32 µg/mL
- Minimal Inhibitory Concentration CA (C. albicans): 128 µg/mL

Structure (SMILES): CCCCCCCC(=O)N[C@@H](CCCCN)C(=O)N[C@@H](Cc1ccccc1)C(=O)N[C@@H](C)C(=O)N[C@@H](CCCCN)C(=O)N[C@@H](Cc1ccccc1)C(=O)N[C@@H](C)C(=O)N[C@@H](CCCCN)C(=O)N[C@@H](CCCCN)C(=O)N[C@@H](Cc1ccccc1)C(=O)N[C@@H](C)C(N)=O [Oct-(SEQ ID NO: 121)-NH2] (Octanoyl-KFAKFAKKFA-NH2)
- Minimal Inhibitory Concentration P [1]: 256 µg/mL
- Minimal Inhibitory Concentration E [2]: 256 µg/mL
- Minimal Inhibitory Concentration CA (C. albicans): 256 µg/mL

Structure (SMILES): CCCCCCCC(=O)N[C@@H](CCCNC(=N)N)C(=O)N[C@@H](CC(C)C)C(=O)N[C@@H](CC(C)C)C(=O)N[C@@H](CCCNC(=N)N)C(=O)N[C@@H](CCCNC(=N)N)C(=O)N[C@@H](CC(C)C)C(=O)N[C@@H](CCCNC(=N)N)C(=O)N[C@@H](CCCNC(=N)N)C(=O)N[C@@H](CC(C)C)C(N)=O [Oct-(SEQ ID NO: 145)-NH2] (Octanoyl-RLLRRLRRL-NH2)
- Minimal Inhibitory Concentration P [1]: 8 µg/mL
- Minimal Inhibitory Concentration E [2]: 16 µg/mL
- Minimal Inhibitory Concentration CA (C. albicans): 64 µg/mL
